For test [1], the system named is CD4 cells, isolated from healthy donor PMBCs, infected with HIV VSV-G pseudotyped GFP-GAG reporter virus. Nature of the test: tissue or blood. It is filed as cell-based. The settings on record: Homo sapiens, 72 h.
Test [2] has as its system monocytic THP1 cells infected with HIV VSV-G pseudotyped GFP-NEF reporter virus. Description: cells. Type of test: cell-based. The settings on record: Human immunodeficiency virus 1, THP-1, 24 h.

Our source for the EC50 values is patent publication US20250333424A1, “ANTIVIRAL COMPOUNDS” (Gilead Sciences, Inc., priority 2024, published 2025).

Broadly, the EC50 is the midpoint of the concentration-response curve. A lower EC50 goes with a more potent agent. Regarding `Cc1nc2c(Nc3c(C)cc(/C=C/C#N)cc3C)nc(NC34CC(C#N)(C3)C4)nc2s1` [Compound 55, (E)-3-((7-((4-(2-cyanovinyl)-2,6-dimethylphenyl)amino)-2-methylthiazolo[5,4-d]pyrimidin-5-yl)amino)bicyclo[1.1.1]pentane-1-carbonitrile], the EC50 was found to be 25.9 nM in test [1] and 130 nM in test [2].
For `Cc1cc(/C=C/C#N)cc(C)c1Oc1nc(NC23CC(C#N)(C2)C3)nc2scnc12` [Compound 56, (E)-3-((7-(4-(2-cyanovinyl)-2,6-dimethylphenoxy)thiazolo[5,4-d]pyrimidin-5-yl)amino)bicyclo[1.1.1]pentane-1-carbonitrile] the same measures were 96.6 nM and 142 nM.
Taken in the same sequence, the figures for `Cc1cc(/C=C/C#N)cc(C)c1Oc1nc(NC23CC(C#N)(C2)C3)nc2nc(C(C)(C)O)[nH]c12` [Compound 60, (E)-3-((6-(4-(2-cyanovinyl)-2,6-dimethylphenoxy)-8-(2-hydroxypropan-2-yl)-7H-purin-2-yl)amino)bicyclo[1.1.1]pentane-1-carbonitrile] were 175 nM and 373 nM.
Taken in the same sequence, the figures for `Cc1cc(/C=C/C#N)cc(C)c1Oc1nc(NC23CC(C#N)(C2)C3)nc2nc(-c3cnn(C)c3)[nH]c12` [Compound 64, (E)-3-((6-(4-(2-cyanovinyl)-2,6-dimethylphenoxy)-8-(1-methyl-1H-pyrazol-4-yl)-7H-purin-2-yl)amino)bicyclo[1.1.1]pentane-1-carbonitrile] were 274 nM and 123 nM.
`Cc1cc(/C=C/C#N)cc(C)c1Oc1nc(NC23CC(C#N)(C2)C3(F)F)nc2nn(C)cc12` [Compound 76, (E)-3-((4-(4-(2-cyanovinyl)-2,6-dimethylphenoxy)-2-methyl-2H-pyrazolo[3,4-d]pyrimidin-6-yl)amino)-2,2-difluorobicyclo[1.1.1]pentane-1-carbonitrile]: the EC50 in test [1] came out at 19.3 nM; in test [2], 25.3 nM.
Taken in the same sequence, the figures for `Cc1cc(/C=C/C#N)cc(C)c1Oc1nc(NC23CC(C#N)(C2)C3)nc2[nH]nnc12` [Compound 80, €-3-((7-(4-(2-cyanovinyl)-2,6-dimethylphenoxy)-3H-[1,2,3]triazolo[4,5-d]pyrimidin-5-yl)amino)bicyclo[1.1.1]pentane-1-carbonitrile] were 551 nM and 593 nM.
Regarding `Cc1cc(/C=C/C#N)cc(C)c1OC1=NC(NC23CC(C#N)(C2)C3)=NC2N=CN(C)C12` (centres unmarked) [Compound 89, (E)-3-((6-(4-(2-cyanovinyl)-2,6-dimethylphenoxy)-7-methyl-4,5-dihydro-7H-purin-2-yl)amino)bicyclo[1.1.1]pentane-1-carbonitrile], the concentration giving a half-maximal response (EC50) turned out to be 16.6 nM in test [1] and 24.4 nM in test [2].
As for `Cc1cc(/C=C/C#N)cc(C)c1Oc1nc(NC23CC(C#N)(C2)C3)nc2nc(C)n(C)c12` [Compound 97, (E)-3-((6-(4-(2-cyanovinyl)-2,6-dimethylphenoxy)-7,8-dimethyl-7H-purin-2-yl)amino)bicyclo[1.1.1]pentane-1-carbonitrile], the values for the EC50 in test [1] and in test [2] were 51.1 nM and 32.5 nM, respectively.
With `Cc1cc(/C=C/C#N)cc(C)c1Oc1nc(NC23CC(C#N)(C2)C3)nc2ncn(CC(F)(F)F)c12` [Compound 106, (E)-3-((6-(4-(2-cyanovinyl)-2,6-dimethylphenoxy)-7-(2,2,2-trifluoroethyl)-7H-purin-2-yl)amino)bicyclo[1.1.1]pentane-1-carbonitrile], the figures for the EC50 in test [1] and in test [2] were 237 nM and 216 nM, respectively.
For `Cc1cc(/C=C/C#N)cc(C)c1Oc1nc(NC23CC(C#N)(C2)C3)nc2[nH]nc(C#N)c12` [Compound 112, (E)-6-((3-cyanobicyclo[1.1.1]pentan-1-yl)amino)-4-(4-(2-cyanovinyl)-2,6-dimethylphenoxy)-1H-pyrazolo[3,4-d]pyrimidine-3-carbonitrile] the same measures were 294 nM and 745 nM.
